Values quoted from earlier work as cited in article PMC10318822, “Phase 1 dose-escalation study to evaluate the safety, tolerability, pharmacokinetics, and anti-tumor activity of FCN-159 in adults with neurofibromatosis type 1-related unresectable plexiform neurofibromas” (BMC Medicine, 2023).

Tests used:
[1] = parameters: method as in PMID 36627544; conditions: healthy volunteers, compared with fasted state; cited from earlier work
[2] = system: MAPK pathway (phosphorylation of MEK kinase and intracellular ERK); parameters: method as in doi:10.1158/1538-7445.AM2020-1951; conditions: human colon cancer cells; preventing phosphorylation of MEK kinase and intracellular ERK; cited from earlier work
[3] = system: xenograft models (including human melanoma A375); parameters: method as in doi:10.1158/1538-7445.AM2020-1951; conditions: nude mouse xenograft models (including human melanoma A375); cited from earlier work

SMILES: Cn1c(=O)c(F)c(Nc2ccc(I)cc2F)c2c(=O)n(C3CC3)nc(-c3cccc(NS(=O)(=O)C4CC4)c3)c21 [FCN-159]
- Food effect on pharmacokinetic profile [1]: food did not affect the pharmacokinetic profile
- Effect on downstream MAPK pathway [2]: blocks the downstream MAPK pathway
- Tumor growth [3]: Anti-tumor activity was observed
